What was measured:
Assay type in all cases: in vivo
[1] = tested on: barnyardgrass (Echinochloa crus-galli); test: Test B flooded paddy: barnyardgrass; conditions: Flood, applied to paddy water at 2-leaf stage, visually evaluated after 13 to 15 days
Method in brief: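 Plants were grown to the 2-leaf stage and pots flooded to 3 cm above soil. Compounds were applied directly into the paddy water, with depth kept for the test. After 13–15 days in greenhouse, response was rated visually against controls on a 0 (no effect) to 100 (complete control) scale.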

[2] = tested on: speedwell (bird's-eye speedwell, Veronica persica); test: Test D pre-/postemergence: speedwell
Method in brief: (§1)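 Species were sown in silt loam and sprayed preemergence, or grown in peat/vermiculite medium and sprayed postemergence at the 1- to 4-leaf stage (2–18 cm), with compounds in a surfactant-containing solvent. Injury was visually rated against untreated controls after 14–21 days, on a 0 (no effect) to 100 (complete control) scale.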

[3] = tested on: bermudagrass (Cynodon dactylon); test: Test C pre-/postemergence: bermudagrass
Method in brief: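 Preemergence on seeds in loam/sand, postemergence on 2–18 cm (1–4-leaf) plants in peat-based medium; compounds in non-phytotoxic solvent with surfactant. After 13–15 days in greenhouse, visual rating versus controls, 0 (no effect) to 100 (complete control).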

[4] = tested on: field poppy (Papaver rhoeas); test: Test D pre-/postemergence: field poppy
From the text: Seeds of plant species selected from bluegrass (annual bluegrass, Poa annua), blackgrass (Alopecurus myosuroides), canarygrass (Phalaris minor), chickweed (common chickweed, Stellaria media), galium (catchweed bedstraw, Galium aparine), bromegrass, downy (downy bromegrass, Bromus tectorum), field poppy (Papaver rhoeas), field violet (Viola arvensis), foxtail, green (green foxtail, Setaria viridis), deadnettle (henbit deadnettle, Lamium amplexicaule), ryegrass, Italian (Italian ryegrass, Lolium multiflorum), kochia (Kochia scoparia), lambsquarters (Chenopodium album), oilseed rape (Brassica napus), pigweed (Amaranthus retroflexus), Russian thistle (Salsola iberica), chamomile (scentless chamomile, Matricaria inodora), speedwell (bird's-eye speedwell, Veronica persica), barley, spring (spring barley, Hordeum vulgare), wheat, spring (spring wheat, Triticum aestivum), buckwheat, wild (wild buckwheat, Polygonum convolvulus), mustard, wild (wild mustard, Sinapis arvensis), oat, wild (wild oat, Avena fatua), radish, wild (wild radish, Raphanus raphanistrum), windgrass (Apera spica-venti), barley, winter (winter barley, Hordeum vulgare), and wheat, winter (winter wheat, Triticum aestivum) were planted into a silt loam soil and treated preemergence with test chemicals formulated in a non-phytotoxic solvent mixture which included a surfactant. At the same time, these same crop and weed species were planted in pots containing the planting medium comprising spaghnum peat moss, vermiculite, wetting agent and starter nutrients and treated with postemergence applications of the test chemicals formulated in the same manner. Plants ranged in height from 2 to 18 cm (1- to 4-leaf stage).
Treated plants and controls were maintained in a controlled growth environment for 14 to 21 days after which time all species were compared to controls and visually evaluated. Plant response ratings, summarized in Table D, are based on a scale of 0 to 100 where 0 is no effect and 100 is complete control. A dash (-) response means no test result.

[5] = tested on: oat, wild (wild oat, Avena fatua); test: Test D pre-/postemergence: oat, wild
Method in brief: as §1

[6] = tested on: sedge, umbrella (small-flower umbrella sedge, Cyperus difformis); test: Test C flooded paddy test: sedge, umbrella; conditions: Cyperus difformis, scale 0 to 100 (0 no effect, 100 complete control), read-out: Plant response rating, Sedge, Umbrella
Method in brief: (§2)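 Plants at 2-leaf stage in pots flooded 3 cm above soil; compounds applied directly into the paddy water, depth maintained. Visual rating against controls after 13–15 days in greenhouse, scale 0 (no effect) to 100 (complete control).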

rice (Oryza sativa) = test: Test C flooded paddy test: rice; conditions: Oryza sativa, scale 0 to 100 (0 no effect, 100 complete control), read-out: Plant response rating, Rice
Method in brief: as §2

[7] = Preemergence, 16 g ai/ha, scale 0 to 100 (0 no effect, 100 complete control)
[8] = Preemergence, 31 g ai/ha, scale 0 to 100 (0 no effect, 100 complete control)
[9] = Preemergence, 62 g ai/ha, scale 0 to 100
[10] = Preemergence, 125 g ai/ha, scale 0 to 100
[11] = Preemergence, 31 g ai/ha, scale of 0 to 100, 0 is no effect, 100 is complete control
[12] = Preemergence, 62 g ai/ha, scale of 0 to 100, 0 is no effect, 100 is complete control
[13] = Preemergence, 125 g ai/ha, scale 0 to 100, 0 no effect, 100 complete control
[14] = Preemergence, 250 g ai/ha, scale 0 to 100, 0 no effect, 100 complete control
[15] = Postemergence, 31 g ai/ha, scale 0 to 100 (0 no effect, 100 complete control)
[16] = Postemergence, 62 g ai/ha, scale 0 to 100 (0 no effect, 100 complete control)
[17] = Postemergence, 125 g ai/ha, scale 0 to 100, 0 no effect, 100 complete control
[18] = Postemergence, 16 g ai/ha, scale 0 to 100
[19] = Postemergence, 250 g ai/ha, scale 0 to 100 (0 no effect, 100 complete control)
[20] = Flood (flooded paddy test), 125 g ai/ha, visual rating after 13 to 15 days
[21] = Flood (flooded paddy test), 250 g ai/ha, visual rating after 13 to 15 days
[22] = Postemergence, 250 g ai/ha, scale 0 to 100
[23] = Preemergence, 250 g ai/ha, scale 0 to 100

## CCOc1nn(-c2ccc(Br)cc2)nc1Cc1ccnc(C(F)(F)F)c1 [Compound 189]
[1]; 125 g ai/ha
  Plant response rating, Barnyardgrass (0 to 100 scale, 0 is no effect, 100 is complete control): 0

## CCc1nn(-c2ccc(F)cc2)nc1Oc1ccnc(C(F)(F)F)c1 [Compound 166]
[1]; 125 g ai/ha
  Plant response rating, Barnyardgrass (0 to 100 scale, 0 is no effect, 100 is complete control): 70

## Cc1nn(-c2ccc(C(F)(F)F)c(F)c2)nc1Cc1ccnc(C(F)(F)F)c1 [Compound 162]
[1]; 125 g ai/ha
  Plant response rating, Barnyardgrass (0 to 100 scale, 0 is no effect, 100 is complete control): 70

## Cc1nn(-c2ccc(F)c(C(F)(F)F)c2)nc1Oc1ccnc(C(F)(F)F)c1 [Compound 147]
[1]; 250 g ai/ha
  Plant response rating, Barnyardgrass (0 to 100 scale, 0 is no effect, 100 is complete control): 55
[2]; [7]
  Plant response rating, Speedwell: 10
[2]; [8]
  Plant response rating, Speedwell: 20
[2]; [9]
  Plant response rating, Speedwell: 100
[2]; [10]
  Plant response rating, Speedwell: 100
[3]; [11]
  Plant response rating, Bermudagrass: 100
[3]; [12]
  Plant response rating, Bermudagrass: 100
[3]; [13]
  Plant response rating, Bermudagrass: 100
[3]; [14]
  Plant response rating, Bermudagrass: 100
[4]; [15]
  Plant response rating: Field Poppy: 90
[4]; [16]
  Plant response rating: Field Poppy: 100
[4]; [17]
  Plant response rating: Field Poppy: 100
[4]; [18]
  Plant response rating, Field Poppy: 90
[4]; [7]
  Plant response rating, Field Poppy: 55
[4]; [8]
  Plant response rating, Field Poppy: 75
[4]; [9]
  Plant response rating, Field Poppy: 95
[4]; [10]
  Plant response rating, Field Poppy: 100
[5]; [15]
  Plant response rating: Oat, Wild: 15
[5]; [16]
  Plant response rating: Oat, Wild: 30
[5]; [17]
  Plant response rating: Oat, Wild: 35
[5]; [18]
  Plant response rating, Oat, Wild: 10
[5]; [7]
  Plant response rating, Oat, Wild: 5
[5]; [8]
  Plant response rating, Oat, Wild: 15
[5]; [9]
  Plant response rating, Oat, Wild: 35
[5]; [10]
  Plant response rating, Oat, Wild: 70

## CCCc1nn(-c2ccc(F)cc2)nc1Cc1ccnc(C(F)(F)F)c1 [Compound 153]
[1]; 250 g ai/ha
  Plant response rating, Barnyardgrass (0 to 100 scale, 0 is no effect, 100 is complete control): 80

## Cc1nn(-c2ccc(F)cc2)nc1Oc1ccnc(C(F)(F)F)c1 [Compound 129, 4-[[2-(4-fluorophenyl)-5-methyl-2H-1,2,3-triazol-4-yl]oxy]-2-(trifluoromethyl)pyridine]
[2]; [15]
  Plant response rating: Speedwell: 100
[2]; [16]
  Plant response rating: Speedwell: 100
[2]; [17]
  Plant response rating: Speedwell: 100
[2]; [19]
  Plant response rating: Speedwell: 100
[2]; [18]
  Plant response rating, Speedwell: 100
[6]; [20]
  pest or weed control at 125 g/ha: 85%
[6]; [21]
  pest or weed control at 250 g/ha: 95%
[6]; Flood, 31 g ai/ha
  pest or weed control at 31 g/ha: 75%
[6]; Flood, 62 g ai/ha
  pest or weed control at 62 g/ha: 75%
Rice (Oryza sativa); [20]
  plant injury at 125 g/ha: 40%
Rice (Oryza sativa); [21]
  plant injury at 250 g/ha: 50%
Rice (Oryza sativa); Flood, 31 g ai/ha
  plant injury at 31 g/ha: 20%
Rice (Oryza sativa); Flood, 62 g ai/ha
  plant injury at 62 g/ha: 30%
[3]; [15]
  Plant response rating, Bermudagrass: 40
[3]; [16]
  Plant response rating, Bermudagrass: 45
[3]; [17]
  Plant response rating, Bermudagrass: 60
[3]; [22]
  Plant response rating, Bermudagrass: 70
[3]; [11]
  Plant response rating, Bermudagrass: 98
[3]; Preemergence, 62 g ai/ha, scale 0 to 100, 0 no effect, 100 complete control
  Plant response rating, Bermudagrass: 98
[3]; [13]
  Plant response rating, Bermudagrass: 98
[3]; [14]
  Plant response rating, Bermudagrass: 98
[4]; [15]
  Plant response rating: Field Poppy: 100
[4]; [16]
  Plant response rating: Field Poppy: 100
[4]; [17]
  Plant response rating: Field Poppy: 100
[4]; [19]
  Plant response rating: Field Poppy: 85
[4]; [18]
  Plant response rating, Field Poppy: 100
[4]; [7]
  Plant response rating, Field Poppy: 0
[4]; [8]
  Plant response rating, Field Poppy: 75
[4]; [9]
  Plant response rating, Field Poppy: 70
[4]; [10]
  Plant response rating, Field Poppy: 100
[4]; [23]
  Plant response rating, Field Poppy: 100
[5]; [15]
  Plant response rating: Oat, Wild: 10
[5]; [16]
  Plant response rating: Oat, Wild: 10
[5]; [17]
  Plant response rating: Oat, Wild: 20
[5]; [19]
  Plant response rating: Oat, Wild: 25
[5]; [18]
  Plant response rating, Oat, Wild: 10
[5]; [7]
  Plant response rating, Oat, Wild: 0
[5]; [8]
  Plant response rating, Oat, Wild: 0
[5]; [9]
  Plant response rating, Oat, Wild: 5
[5]; [10]
  Plant response rating, Oat, Wild: 55
[5]; [23]
  Plant response rating, Oat, Wild: 100

## CCCc1nn(-c2ccc(C(F)(F)F)c(F)c2)nc1Oc1ccnc(C(F)(F)F)c1 [Compound 185]
[1]; 250 g ai/ha
  Plant response rating, Barnyardgrass (0 to 100 scale, 0 is no effect, 100 is complete control): 90

## Fc1ccc(-n2nc(Cc3ccnc(C(F)(F)F)c3)c(OCC(F)(F)F)n2)cc1 [Compound 142]
[1]; 250 g ai/ha
  Plant response rating, Barnyardgrass (0 to 100 scale, 0 is no effect, 100 is complete control): 70
[3]; [15]
  Plant response rating, Bermudagrass: 15
[3]; [16]
  Plant response rating, Bermudagrass: 70
[3]; [17]
  Plant response rating, Bermudagrass: 75
[3]; [22]
  Plant response rating, Bermudagrass: 85
[3]; [11]
  Plant response rating, Bermudagrass: 98
[3]; [12]
  Plant response rating, Bermudagrass: 98
[3]; [13]
  Plant response rating, Bermudagrass: 98
[3]; [14]
  Plant response rating, Bermudagrass: 98
